According to US8252825B2, “Angiotensin II receptor antagonists” (NicOx, priority 2007, dated 2012):

Key:
[1] = tested on: conscious telemetered dogs; assay: Systolic blood pressure lowering after oral administration to conscious telemetered dogs; format: in vivo, dog; settings: 10 mg/kg
Excerpt: Compounds 1 and 2 shown below were studied for systolic blood pressure lowering when orally administered to conscious telemetered dogs.

[2] = tested on: isolated rabbit thoracic aorta preparations; assay: Vessel relaxation assay in isolated rabbit thoracic aorta rings; format: cell-based; settings: Oryctolagus cuniculus; rabbit aortic rings precontracted with noradrenaline, functional endothelium
Protocol: The ability of the compounds to induce vasorelaxation was tested in vitro in isolated rabbit thoracic aorta preparations (Wanstall J. C. et al., Br. J. Pharmacol., 134:463-472, 2001). Male New Zealand rabbits were anaesthetized with thiopental-Na (50 mg/kg, iv), sacrificed by exsanguinations and then the thorax was opened and the aorta dissected. Aortic ring preparations (4 mm in length) were set up in physiological salt solution (PSS) at 37° C. in small organ chambers (5 ml). The composition of PSS was (mM): NaCl 130, NaHCO3 14.9, KH2PO4 1.2, MgSO4 1.2, HEPES 10, CaCl2, ascorbic acid […] and glucose 1.1 (95% O2/5% CO2; pH 7.4). Each ring was mounted under 2 g passive tension. Isometric tension was recorded with a Grass transducer (Grass FT03) attached to a BIOPAC MP150 System. Preparations were allowed to equilibrate for 1 h, and then contracted submaximally with noradrenaline (NA, 1 μM) and, when the contraction was stable, acetylcholine (ACh, 10 μM) was added. A relaxant response to ACh indicated the presence of a functional endothelium. […] When a stable precontraction was reached, a cumulative concentration-response curve to either of the vasorelaxant agents was obtained in the presence of a functional endothelium. Each arterial ring was exposed to only one combination of inhibitor and vasorelaxant. […]
Example 3 and 4 were evaluated for vessel relaxation.

With `CCCCc1nc(Cl)c(C(=O)OC(C)OC(=O)OCCCC[C@H](CO[N+](=O)[O-])O[N+](=O)[O-])n1Cc1ccc(-c2ccccc2-c2nnn[nH]2)cc1` (some centres unmarked) [Compound 1] the “Approximate change in systolic blood pressure (mmHg), 1-6 h” value ([1]; 1-6 h) was −14 mmHg, the “Approximate change in systolic blood pressure (mmHg), 6-12 h” value ([1]; 6-12 h) was −7 mmHg and the “Approximate change in systolic blood pressure (mmHg), 12-18 h” value ([1]; 12-18 h) was 3 mmHg.
In the case of `CCCCc1nc(Cl)c(C(=O)OC(C)OC(=O)OCCC(C)[C@@H](O[N+](=O)[O-])[C@@H](C)O[N+](=O)[O-])n1Cc1ccc(-c2ccccc2-c2nnn[nH]2)cc1` (stereo partly drawn) [Example 3, 1-[({[(4R,5R)-3-methyl-4,5-bis(nitrooxy)hexyl]oxy}carbonyl)oxy]ethyl 2-butyl-4-chloro-1-{[2′-(1H-tetrazol-5-yl)biphenyl-4-yl]methyl}-1H-imidazole-5-carboxylate], the EC50 [2] is reported as 8.5 µM.
Work on `CCOc1nc2cccc(C(=O)OC(C)(C)OC(=O)OCCC(C)[C@@H](O[N+](=O)[O-])[C@@H](C)O[N+](=O)[O-])c2n1Cc1ccc(-c2ccccc2-c2nnn[nH]2)cc1` (stereo partly drawn) [Example 4, 1-[({[(4R,5R)-3 Methyl-4,5-bis(nitrooxy)hexyl]oxy}carbonyl)oxy]-1-methylethyl 2-ethoxy-1-{[2′-(1H-tetrazol-5-yl)biphenyl-4-yl]methyl}-1H-benzimidazole-7-carboxylate] yielded an EC50 [2] of 6.4 µM.
